Measurements reported in patent publication US20100292316A1, “IMPROVED THERAPEUTIC METHODS AND COMPOSITIONS COMPRISING CHROMAN RING COMPOUNDS” (Research Development Foundation, priority 2007, published 2010).

Tests used:
Assay type in all cases: cell-based, human
[1] = test system: PARP; experiment: PARP cleavage (p84) by Western blot, densitometry
Method: Whole-cell protein extracts were prepared as described previously (Yu et al., 1999), and 50 μg of protein was loaded per lane, separated using SDS-PAGE on a 10-15% gel under reducing conditions, and electroblotted onto a nitrocellulose membrane ([…] Optitran BA-S-supported nitrocellulose; Schleicher and Schuell, Keene, N.H.). Equal loading was verified using GAPDH antibody. Primary rabbit antibodies with specificity for PARP and primary goat antibody with specificity for Arg were purchased from Santa Cruz Biotechnology (Santa Cruz, Calif.). Horseradish peroxidase conjugated goat anti-rabbit or horseradish goat anti-mouse secondary antibody was purchased from Jackson Immunoresearch Laboratory (West Grove, Pa.). Horseradish peroxidase-conjugated donkey anti-goat serum was purchased from Santa Cruz Biotechnology. Immune complexes were visualized using enhanced chemiluminescence detection (Pierce Chemical Co., Rockford, Ill.). Fold differences in level of chemiluminescence were determined by densitometric analyses.
Primary mouse antibody specific for p73 was purchased from IMGENEX (San Diego, Calif.). Primary mouse antibody specific for caspase 8 was purchased from Cell Signaling Technology (Beverly, Mass.). Horseradish peroxidase conjugated goat anti-rabbit or goat anti-mouse secondary antibodies were purchased from Jackson Immunoresearch Laboratory (West Grove, Pa.). Horseradish peroxidase-conjugated donkey […] serum was purchased from Santa Cruz Biotechnology. Immune complexes were visualized using enhanced chemiluminescence detection (Pierce Chemical Co., Rockford, Ill.). Fold differences in level of chemiluminescence were determined by densitometric analyses.

[2] = test system: c-Jun; experiment: c-Jun phosphorylation (JNK substrate) by Western blot
Method: Similar results were also observed in α-TEA treated MCF-7 cells in the presence of JNK inhibitor II (7.5 μM of JNK inhibitor II (Calbiochem-Novabiochem Corp. San Diego, Calif.) vs. DMSO control). Specifically, 68% reduction in the level of phosphorylated c-Jun (FIG. 11B, top panel), almost 100% reduction in NOXA expression (FIG. 11B, second panel), and 29% reduction in the level of PARP cleavage (FIG. 11B, third panel).
JNK siRNA was used to determine if JNK was involved in α-TEA regulation of NOXA expression. MDA-MB-435 and MCF-7 cells were transiently transfected with siRNA specific for JNK1/2 (JNK1/2 sense (5′-AAA GAA UGU CCU ACC UUC Utt-3′), JNK1/2 antisense (5′AGA AGG UAG GAC AUU CUU Utt-3′)). The cells were then treated with α-TEA for 15 h, or 20 h, respectively. […] Likewise in MCF-7 cells JNK siRNA blocked JNK1 phosphorylation by 26% (FIG. 11D, first panel), blocked c-Jun phosphorylation by 36% (FIG. 1D, second panel), reduced protein levels of full length p73 by 66% (FIG. 1D, third panel), reduced protein levels of NOXA by 14% (FIG. 1D, fourth panel), and reduced level of PARP cleavage by 44% (FIG. 11D, fifth panel). Anti-p73 antibodies used in the foregoing experiment were purchases from IMGENEX (San Diego, Calif.).

[3] = test system: NOXA; experiment: NOXA mRNA (RT-PCR) and protein (Western blot) levels
[4] = test system: PC-3-GFP cells; experiment: Apoptosis by DAPI staining, PC-3-GFP
Method: (§1) Assessment of apoptosis based on nuclear morphology using 4′, 6-diamidino-2-phenylindole dihydrochloride (DAPI; Boehringer Mannheim Corp. Indianapolis, Ind.) has been described previously (Yu et al., 2003; Israel et al., 2000). Briefly, 1.5×10^5/well LNCaP or PC-3-GFP cells were plated in 12-well tissue culture plates and cultured overnight to allow cells to attach. On the next day, cells were treated with various concentrations of α-TEA and incubated for various time periods. At the end of treatments, cells were collected, washed with PBS, stained with 25 μl of 2 μg/ml DAPI, and viewed under a fluorescent microscope (model ICM 405 with a model 487701 filter, Zeiss). Cells which contained clearly condensed chromatin or fragmented nuclei were scored as apoptotic cells. ≧500 cells were counted in each sample. Apoptotic data are presented as percentage of apoptotic cells±S.D. for three independent experiments.

[5] = test system: LNCaP cells; experiment: Apoptosis by DAPI staining, LNCaP
Method: Cells were plated at 2×10^6 in 100 mm cell culture plates, cultured overnight and washed with serum free media before transfection. Plasmids (0.7 μg or 4.2 of μg) or empty vector (pcDNA3) were mixed with 50 μl or 300 μl serum free media and 4 μl or 24 μl PLUS reagent (Invitrogen, CA) and incubated for 15 min at room temperature. Next 2 μl or 12 μl of Lipofectamine reagent (Invitrogen, CA) in 50 μl or 300 μl serum free media were added and the mixture incubated for another 15 min before adding to the cells in 0.5 ml or 5 ml serum free media. Cells were incubated with transfection reagents for 3 h and the growth media containing 2×FBS was added to the cells. Transfected cells were cultured overnight before α-TEA treatment. Transfection efficiency was determined to be 70% using GFP expressing plasmid.
as §1
FOXO1 siRNA used in the study was purchased from Santa Cruz (Santa Cruz, Calif.). […] Transfection of human prostate cancer cells with FOXO1 siRNA or negative control siRNA was performed in 100 mm cell culture dishes at a density of 2×10^6 cells/dish using Lipofectamine 2000 (Invitrogen, Carlsbad, Calif.) and 300 pmol of siRNA duplex, resulting in a final siRNA concentration of 30 nM. siRNA transfected cells were incubated for 48-72 h prior to α-TEA treatment.

[6] = test system: Akt; experiment: Western blot of phosphorylated Akt (Ser 473) and total Akt in prostate cancer cells
From the text: Previous studies have shown that α-TEA is an effective inducer of apoptosis in human prostate cancer cells (Anderson et al., 2004). Dose- and time-dependent pro-apoptotic effects of α-TEA in prostate cancer cells are mediated by Fas/FADD/caspase-8/tBid and Fas/Daxx/Ask1/JNK1/2/Bax, leading to activation of caspases-9 and -3. Thus, the Akt inhibiting activity of α-TEA was investigated in prostate cancer cells. Since phosphorylation of Akt at Ser 473 is required for its full activation (Cheng et al., 2005), we examined the phosphorylation status of Akt using an antibody that specifically recognizes Akt phosphorylated at Ser 473 in all three Akt isoforms (Upstate Cell Signaling Solutions (Charlottesville, Va.)). α-TEA decreased the levels of the phosphorylated forms of Akt. […] As verification that the decreases in phosphorylation status of Akt correlated with decreased kinase activity, the phosphorylation status of GSK3β, a downstream Akt target, was evaluated following α-TEA treatments. […] GAPDH levels were assayed with each immunoblot assay as a protein loading control.
Since Akt has three isoforms; namely, Akt1, Akt2, and Akt3, it was of interest to determine if α-TEA treatment was reducing the phosphorylated status of all three isoforms. Following α-TEA treatment the three Akt isoforms were immunoprecipitated with isoform specific antibodies, followed by western immunoblotting analyses using antibody specific for phospho-Akt. The protein levels of the isoforms were also determined. […] Treatment diminished the phosphorylation levels in all three Akt isoforms in both LNCaP and PC-3-GFP cells.
1×10^7 LNCaP or PC-3 3-GFP cells were treated with α-TEA and lysed in RIPA lysis buffer in the presence of protease inhibitors. […] Beads were washed 4 times with PBS and the proteins were released from the beads by boiling in Laemmli buffer for 5 min. Immunoprecipitated proteins were identified by SDS-PAGE followed by western immunoblot analyses.
Since Akt is activated, at least in part, by PI3K, we were interested to see if blockage of PI3K activity using the PI3K inhibitor LY294002 (Calbiochem-Novabiochem Corp. (San Diego, Calif.)) (Vlahos et al., 1994) would augment the apoptotic response induced by α-TEA.

[7] = MCF-7 cells, 40 μM α-TEA 20 h, vs DMSO or control siRNA
[8] = MDA-MB-435 cells, 40 μM α-TEA 15 h, vs vehicle or control siRNA

Structure (SMILES) | reduction of level of PARP cleavage in α-TEA treated cells [1, 7] | reduction of PARP cleavage (p84 fragment) in α-TEA treated cells ([1]; MDA-MB-435 cells, 40 μM α-TEA 15 h, vs control siRNA or vehicle) | reduction of α-TEA-induced c-Jun phosphorylation [2, 7] | reduction of α-TEA-induced c-Jun phosphorylation [2, 8] | reduction of α-TEA-induced NOXA expression [3, 7] | reduction of α-TEA-induced NOXA expression [3, 8] | apoptotic cells ([4]; 25 μM LY294002, 24 h) | apoptotic cells ([4]; 50 μM LY294002, 24 h) | induction of apoptosis (apoptotic cells) ([5]; 6 μM LY294002, 24 h) | induction of apoptosis (apoptotic cells) ([5]; 12 μM LY294002, 24 h) | induction of apoptosis (apoptotic cells) ([5]; 25 μM LY294002, 24 h) | inhibition of levels of endogenously phosphorylated Akt ([6]; LNCaP cells, 10 μM α-TEA and/or 10 μM LY294002) | inhibition of levels of endogenously phosphorylated Akt ([6]; PC-3-GFP cells, 20 μM α-TEA and/or 10 μM LY294002)
O=C1c2ccccc2-c2n[nH]c3cccc1c23 [JNK inhibitor II] | 29% | 34% | 68% | 38% | ~100% | 41% |  |  |  |  |  |  | 
O=c1cc(N2CCOCC2)oc2c(-c3ccccc3)cccc12 [LY294002, 2-(4-morpholinyl)-8-phenyl-4H-1-benzopyran-4-one, reference compound] |  |  |  |  |  |  | 6.2% | approximately 15% | 4.9% | 13% | 41% | 20% | 60%
